Data reported in publication PMC9541272, “Carba Analogues of Flupirtine and Retigabine with Improved Oxidation Resistance and Reduced Risk of Quinoid Metabolite Formation” (Chemmedchem, 2022).
“Also recorded” adds a separate entry of the source. Read-outs that look alike come from different tables or passages of the source.

Experiments:
[1] = LogD7.4 estimation by HPLC-based method; format: physicochemical; conditions: for logD7.4 (single determination): calculated from retention time with one calibration function (A–F)
Experimental: The logarithm of the capacity factors of the reference substances was then plotted against the corresponding logP values taken from the mentioned guideline to obtain a calibration function. For non‐ionizable compounds like the reference substances used for calibration, logP values can be considered equivalent to the logD 7.4 values. To obtain a reference mixture, 2 mg of the reference substances were each dissolved in 1 mL of methanol, and 50 μL aliquots of each reference solution were subsequently combined. The reference mixture was measured before and after the substances to be tested, and the mean retention time from both measurements was used to calculate the calibration function. The calibration function was then used to determine the logD 7.4 values from the corresponding retention times for each substance to be tested. The compounds of interest were injected as a solution in methanol (2 mg/mL), and the retention time was determined as the mean value from two measurements.

[2] = Cyclic voltammetry, anodic peak potential (oxidizability); format: physicochemical; conditions: 0.1 M Tris‐HCl buffer pH 7.4, −0.5 to 1.0 V, sweep rate 0.1 V/s, –[b] = no oxidation observed in the specified potential range
[3] = biological target: KV7.2/3 channel (Homo sapiens, UniProt O43525+O43526); assay: KV7.2/3 channel opening activity, thallium-flux FLIPR Potassium Assay in HEK-293 cells overexpressing KV7.2/3; parameters: Emax: dose or concentration left out as unconfirmed; conditions: for Emax: HEK293E, read-out: Efficacy
Chain of KV7.2/3 channel (O43525 whole entry): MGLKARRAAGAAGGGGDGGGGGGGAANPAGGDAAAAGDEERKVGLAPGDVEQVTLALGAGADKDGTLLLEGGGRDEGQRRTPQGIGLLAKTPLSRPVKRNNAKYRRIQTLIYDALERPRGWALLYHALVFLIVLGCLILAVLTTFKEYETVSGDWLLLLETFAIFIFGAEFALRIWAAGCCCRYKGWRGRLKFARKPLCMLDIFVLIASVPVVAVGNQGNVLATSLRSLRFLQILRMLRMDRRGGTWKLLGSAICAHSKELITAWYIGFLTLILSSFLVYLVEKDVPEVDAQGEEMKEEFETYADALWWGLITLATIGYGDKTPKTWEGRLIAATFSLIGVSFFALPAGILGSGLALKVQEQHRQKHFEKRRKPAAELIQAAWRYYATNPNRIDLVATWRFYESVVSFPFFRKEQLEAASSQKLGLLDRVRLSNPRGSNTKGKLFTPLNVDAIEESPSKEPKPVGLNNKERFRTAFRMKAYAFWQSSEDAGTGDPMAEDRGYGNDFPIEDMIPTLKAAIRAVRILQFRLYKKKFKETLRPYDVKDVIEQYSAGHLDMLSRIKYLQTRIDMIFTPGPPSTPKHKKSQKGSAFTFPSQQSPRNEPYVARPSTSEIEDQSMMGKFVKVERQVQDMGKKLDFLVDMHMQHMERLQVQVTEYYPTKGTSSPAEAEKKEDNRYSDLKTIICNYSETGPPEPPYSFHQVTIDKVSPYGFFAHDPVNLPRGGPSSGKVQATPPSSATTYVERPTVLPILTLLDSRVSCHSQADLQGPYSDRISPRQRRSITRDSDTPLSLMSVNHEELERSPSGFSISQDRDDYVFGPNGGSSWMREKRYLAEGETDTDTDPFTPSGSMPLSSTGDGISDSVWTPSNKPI
Chain of KV7.2/3 channel (O43526 whole entry): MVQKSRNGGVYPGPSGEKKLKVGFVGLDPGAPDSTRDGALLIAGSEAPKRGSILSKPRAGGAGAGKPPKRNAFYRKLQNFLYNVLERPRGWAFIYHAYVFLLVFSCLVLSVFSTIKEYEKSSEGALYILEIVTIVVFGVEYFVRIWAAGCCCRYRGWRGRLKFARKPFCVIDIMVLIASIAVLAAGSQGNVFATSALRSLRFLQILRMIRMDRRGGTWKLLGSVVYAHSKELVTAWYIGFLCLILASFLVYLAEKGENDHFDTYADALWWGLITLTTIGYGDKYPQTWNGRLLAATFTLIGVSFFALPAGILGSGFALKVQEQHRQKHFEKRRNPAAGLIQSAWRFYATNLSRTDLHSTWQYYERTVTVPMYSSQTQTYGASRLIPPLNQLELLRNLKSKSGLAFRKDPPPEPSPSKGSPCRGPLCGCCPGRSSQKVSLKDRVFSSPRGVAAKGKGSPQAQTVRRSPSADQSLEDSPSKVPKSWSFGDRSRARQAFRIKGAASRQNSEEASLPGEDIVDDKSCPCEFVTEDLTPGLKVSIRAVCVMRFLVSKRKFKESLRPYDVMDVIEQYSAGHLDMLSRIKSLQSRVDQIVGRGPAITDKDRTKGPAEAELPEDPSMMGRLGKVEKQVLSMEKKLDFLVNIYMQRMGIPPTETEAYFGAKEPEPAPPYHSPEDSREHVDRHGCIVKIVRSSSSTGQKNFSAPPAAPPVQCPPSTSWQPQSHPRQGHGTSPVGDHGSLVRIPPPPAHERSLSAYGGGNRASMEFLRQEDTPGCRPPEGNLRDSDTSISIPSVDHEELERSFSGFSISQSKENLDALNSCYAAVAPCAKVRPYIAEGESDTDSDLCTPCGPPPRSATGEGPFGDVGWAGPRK

[4] = system: TAMH mouse liver cell line
[5] = system: HEP‐G2 human hepatoma cell line
[6] = pH 7.4, calculated from retention time with one calibration function (A–F), Table S7, read-out: logD7.4 (single determination)
[7] = pH 7.4, estimated by HPLC-based method, pH 7.4, read-out: LogD 7.4
[8] = HEK‐293 cells overexpressing KV7.2/3
[9] = KV7.2/3 opening, ratio of EC50 values
[10] = HEP‐G2, MTT assay, 24 h exposure

CCCC(=O)Nc1ccc(CNc2ccc(F)cc2)cc1F [35 c, N ‐(2‐Fluoro‐4‐{[(4‐fluorophenyl)amino]methyl}phenyl)butyramide]
logD7.4 (single determination) ([1]; Table S7): 2.980
chromatographic logD [1, 6]: 2.96
chromatographic logD [1, 7]: 3
Ep.a. (anodic peak potential) [2]: 643 mV
EC50 [3]: 1510 ± 364 nM
Emax [3]: 167 ± 16%
LD25 (concentration to reduce cell viability by 25 %) ([4]; mouse, 24 h): >63 µM
LD50 (concentration to reduce cell viability by 50 %) ([4]; mouse, 24 h): >63 µM
LD25 (concentration to reduce cell viability by 25 %) ([5]; human, 24 h): >63 µM
LD50 (concentration to reduce cell viability by 50 %) ([5]; human, 24 h): >63 µM

CCCC(=O)Nc1ncc(CNc2ccc(F)cc2)cc1C [43 a, N ‐(5‐{[(4‐Fluorophenyl)amino]methyl}‐3‐methylpyridin‐2‐yl)butyramide]
logD7.4 (single determination) ([1]; Table S7): 2.341
chromatographic logD [1, 6]: 2.33
chromatographic logD [1, 7]: 2.3
Ep.a. (anodic peak potential) [2]: 678 mV
EC50 [3]: 4840 ± 2910 nM
Emax [3]: 89 ± 32%
LD25 (concentration to reduce cell viability by 25 %) ([4]; mouse, 24 h): 110 ± 54 µM
LD50 (concentration to reduce cell viability by 50 %) ([4]; mouse, 24 h): >125 µM
LD25 (concentration to reduce cell viability by 25 %) ([5]; human, 24 h): 46 ± 24 µM
LD50 (concentration to reduce cell viability by 50 %) ([5]; human, 24 h): >125 µM

CCOC(=O)Nc1ccc(CCc2ccc(F)cc2)nc1N [compound 7, Ethyl [2‐amino‐6‐(4‐fluorophenethyl)pyridin‐3‐yl]carbamate]
logD7.4 (single determination) ([1]; Table S7): 2.983
chromatographic logD [1, 6]: 2.95
chromatographic logD [1, 7]: 3
Ep.a. (anodic peak potential) [2]: 628 mV
EC50 [3]: > 10000 nM
KV7.2/3 opening activity (in words) [3, 8]: clearly less active than flupirtine
LD25 (concentration to reduce cell viability by 25 %) ([4]; mouse, 24 h): 25 ± 7 µM
LD50 (concentration to reduce cell viability by 50 %) ([4]; mouse, 24 h): >63 µM
LD25 (concentration to reduce cell viability by 25 %) ([5]; human, 24 h): 27 ± 16 µM
LD50 (concentration to reduce cell viability by 50 %) ([5]; human, 24 h): >63 µM

CCCC(=O)Nc1ccc(CNc2ccc(F)cc2)cc1C(F)(F)F.Cl [35 d, N ‐(4‐{[(4‐Fluorophenyl)amino]methyl}‐2‐(trifluoromethyl)phenyl)butyramide hydrochloride]
logD7.4 (single determination) ([1]; Table S7): 2.991
chromatographic logD [1, 6]: 3
chromatographic logD [1, 7]: 3
Ep.a. (anodic peak potential) [2]: 663 mV
EC50 [3]: 362 ± 93 nM
Emax [3]: 156 ± 14%
LD25 (concentration to reduce cell viability by 25 %) ([4]; mouse, 24 h): >125 µM
LD50 (concentration to reduce cell viability by 50 %) ([4]; mouse, 24 h): >125 µM
LD25 (concentration to reduce cell viability by 25 %) ([5]; human, 24 h): 75 ± 17 µM
LD50 (concentration to reduce cell viability by 50 %) ([5]; human, 24 h): >125 µM

CCCC(=O)Nc1ccc(CNc2ccc(C)cn2)cc1C [35 f, N ‐(2‐Methyl‐4‐{[(5‐methylpyridin‐2‐yl)amino]methyl}phenyl)butyramide]
logD7.4 (single determination) ([1]; Table S7): 2.263
chromatographic logD [1, 6]: 2.29
chromatographic logD [1, 7]: 2.3
Ep.a. (anodic peak potential) [2]: 850 mV
EC50 [3]: 7860 ± 2170 nM
Emax [3]: 70 ± 9%
KV7.2/3 opening activity (in words) [3, 8]: weakly active
LD25 (concentration to reduce cell viability by 25 %) ([4]; mouse, 24 h): >125 µM
LD50 (concentration to reduce cell viability by 50 %) ([4]; mouse, 24 h): >125 µM
LD25 (concentration to reduce cell viability by 25 %) ([5]; human, 24 h): >125 µM
LD50 (concentration to reduce cell viability by 50 %) ([5]; human, 24 h): >125 µM

CCCC(=O)Nc1c(C)cc(CNc2ccc(F)cc2)cc1C [35 a, N ‐(4‐{[(4‐Fluorophenyl)amino]methyl}‐2,6‐dimethylphenyl)butyramide]
logD7.4 (single determination) ([1]; Table S7): 3.023
chromatographic logD [1, 6]: 3.04
chromatographic logD [1, 7]: 3
Ep.a. (anodic peak potential) [2]: 633 mV
EC50 [3]: 143 ± 20 nM
Emax [3]: 143 ± 7%
KV7.2/3 opening activity (in words) [3, 8]: submicromolar activity
fold increase in potency compared to 35 b [3, 9]: 4.7 fold
LD50 (concentration to reduce cell viability by 50 %) ([4]; mouse, 24 h): >125 µM
LD50 (concentration to reduce cell viability by 50 %) ([5]; human, 24 h): >125 µM

CCOC(=O)Nc1ccc(NCc2ccc(F)cc2)cc1N [Ret, retigabine]
Ep.a. (anodic peak potential) [2]: 260 mV
EC50 [3]: 249 ± 52 nM
Emax [3]: 119 ± 7%
fold increase in potency compared to flupirtine [3, 9]: 7 fold
LD25 (concentration to reduce cell viability by 25 %) ([4]; TAMH, MTT assay, 24 h exposure): >400 µM
LD50 (concentration to reduce cell viability by 50 %) ([4]; TAMH, MTT assay, 24 h exposure): >400 µM
LD50 (concentration to reduce cell viability by 50 %) ([4]; TAMH, MTT assay, 24 h exposure, listed as retigabine): above 400 μM
LD25 (concentration to reduce cell viability by 25 %) [5, 10]: 269 ± 166 µM
LD50 (concentration to reduce cell viability by 50 %) [5, 10]: >400 µM
LD50 (concentration to reduce cell viability by 50 %) ([5]; HEP‐G2, MTT assay, 24 h exposure, listed as retigabine): above 400 μM

CCCC(=O)Nc1ccc(CNc2ccc(F)cc2)cc1C [35 b, N ‐(4‐{[(4‐Fluorophenyl)amino]methyl}‐2‐methylphenyl)butyramide]
logD7.4 (single determination) ([1]; Table S7): 2.870
chromatographic logD [1, 6]: 2.88
chromatographic logD [1, 7]: 2.9
Ep.a. (anodic peak potential) [2]: 618 mV
EC50 [3]: 675 ± 276 nM
Emax [3]: 176 ± 14%
LD25 (concentration to reduce cell viability by 25 %) ([4]; mouse, 24 h): >125 µM
LD50 (concentration to reduce cell viability by 50 %) ([4]; mouse, 24 h): >125 µM
LD25 (concentration to reduce cell viability by 25 %) ([5]; human, 24 h): 88 ± 9 µM
LD50 (concentration to reduce cell viability by 50 %) ([5]; human, 24 h): >125 µM

Cc1cc(CNc2ccc(F)cc2)cnc1NC(=O)CC(C)(C)C [43 b, N ‐(5‐{[(4‐Fluorophenyl)amino]methyl}‐3‐methylpyridin‐2‐yl)‐3,3‐dimethylbutanamide]
logD7.4 (single determination) ([1]; Table S7): 3.039
chromatographic logD [1, 6]: 3.03
chromatographic logD [1, 7]: 3
Ep.a. (anodic peak potential) [2]: 663 mV
EC50 [3]: 677 ± 419 nM
Emax [3]: 153 ± 12%
KV7.2/3 opening activity (in words) [3, 8]: submicromolar activity
fold increase in potency compared to 43 a [3, 9]: 7.2 fold
LD25 (concentration to reduce cell viability by 25 %) ([4]; mouse, 24 h): >125 µM
LD50 (concentration to reduce cell viability by 50 %) ([4]; mouse, 24 h): >125 µM
LD25 (concentration to reduce cell viability by 25 %) ([5]; human, 24 h): 66 ± 27 µM
LD50 (concentration to reduce cell viability by 50 %) ([5]; human, 24 h): >125 µM

Cc1cc(CNc2ccc(F)cc2F)ccc1NC(=O)c1cccnc1 [35 e, N ‐(4‐{[(2,4‐Difluorophenyl)amino]methyl}‐2‐methylphenyl)nicotinamide]
logD7.4 (single determination) ([1]; Table S7): 2.952
chromatographic logD [1, 6]: 2.97
chromatographic logD [1, 7]: 3
Ep.a. (anodic peak potential) [2]: no anodic peak potential could be determined; also recorded: –^[b]
KV7.2/3 opening activity (in words) [3, 8]: inactive
EC50 (required concentration to reach half‐maximal KV7.2/3 channel opening activity) ([3]; HEK‐293 cells overexpressing KV7.2/3, mean ± SD, at least three determinations, –[e] = inactive up to a concentration of 20 μM): –^[e]
Efficacy ([3]; maximal fluorescence signal relative to flupirtine (100 %), HEK‐293, –[e] = inactive up to a concentration of 20 μM): –^[e]
LD25 (concentration to reduce cell viability by 25 %) ([4]; mouse, 24 h): 41 ± 11 µM
LD50 (concentration to reduce cell viability by 50 %) ([4]; mouse, 24 h): >125 µM
LD25 (concentration to reduce cell viability by 25 %) ([5]; human, 24 h): 61 ± 7 µM
LD50 (concentration to reduce cell viability by 50 %) ([5]; human, 24 h): 107 ± 16 µM

Cc1cc(CNc2ccc(F)cc2)ccc1NC(=O)CCn1cccn1 [compound 53, N ‐(4‐{[(4‐Fluorophenyl)amino]methyl}‐2‐methylphenyl)‐3‐(1H ‐pyrazol‐1‐yl)propanamide]
logD7.4 (single determination) ([1]; Table S7): 2.924
chromatographic logD [1, 6]: 2.93
chromatographic logD [1, 7]: 2.9
Ep.a. (anodic peak potential) [2]: no anodic peak potential could be determined; also recorded: –^[b]
EC50 [3]: 2360 ± 543 nM
Emax [3]: 144 ± 42%
KV7.2/3 opening activity (in words) [3, 8]: fair KV7.2/3 opening activity
fold decrease in potency compared to butanoylamino sidechain (35 a) [3, 9]: 3.5 fold
LD25 (concentration to reduce cell viability by 25 %) ([4]; mouse, 24 h): >63 µM
LD50 (concentration to reduce cell viability by 50 %) ([4]; mouse, 24 h): >63 µM
LD25 (concentration to reduce cell viability by 25 %) ([5]; human, 24 h): >63 µM
LD50 (concentration to reduce cell viability by 50 %) ([5]; human, 24 h): >63 µM
